Reference: ChEMBL document CHEMBL5380875, “Discovery of a Potent and Oral Available Complex I OXPHOS Inhibitor That Abrogates Tumor Growth and Circumvents MEKi Resistance” (J Med Chem, 2023)
Active and inactive are the calls of the source. The rule behind the calls is not given here.

Legend:
[1] = tested on: NCI-H460; test: Inhibition of mitochondrial complex I NADH-ubiquinone oxidoreductase in human NCI-H460 cells at 1 uM incubated for 12 hrs by seahorse XF96 metabolic flux analyzer relative to control; assay type: cell-based
[2] = tested on: NCI-H460; test: Inhibition of mitochondrial complex II in human NCI-H460 cells at 1 uM incubated for 12 hrs by seahorse XF96 metabolic flux analyzer relative to control; assay type: cell-based
[3] = tested on: NCI-H460; test: Inhibition of mitochondrial complex III in human NCI-H460 cells at 1 uM incubated for 12 hrs by seahorse XF96 metabolic flux analyzer relative to control; assay type: cell-based
[4] = tested on: NCI-H460; test: Inhibition of mitochondrial complex IV in human NCI-H460 cells at 1 uM incubated for 12 hrs by seahorse XF96 metabolic flux analyzer relative to control; assay type: cell-based
[5] = tested on: NCI-H460; test: Inhibition of mitochondrial complex I NADH-ubiquinone oxidoreductase in human NCI-H460 cells assessed as reduction in NAD+/NADH ratio at 1 uM incubated for 12 hrs by WST-8 method relative to control; assay type: cell-based
[6] = tested on: NCI-H460; test: Antiproliferative activity against human NCI-H460 cells with high-OXPHOS assessed as reduction in cell viability incubated for 5 days by CellTiter 96 cell proliferation assay; assay type: functional, cell-based; conditions: NCI-H460, 120 h
[7] = tested on: NCI-H358; test: Antiproliferative activity against human NCI-H358 cells with low-OXPHOS assessed as reduction in cell viability incubated for 5 days by CellTiter 96 cell proliferation assay; assay type: functional, cell-based; conditions: NCI-H358, 120 h
[8] = tested on: A549; test: Cytotoxicity against human A549 cells assessed as reduction in cell viability incubated for 72 hrs by CellTiter 96 cell proliferation assay; assay type: functional, cell-based; conditions: A549, 72 h
[9] = tested on: A549; test: Cytotoxicity against human Trametinib-resistant A549 cells assessed as reduction in cell viability incubated for 72 hrs by CellTiter 96 cell proliferation assay; assay type: functional, cell-based; conditions: A549, 72 h
[10] = tested on: NCI-H460; test: Induction of apoptosis in human NCI-H460 cells with high-OXPHOS harboring KRAS Q61H mutant assessed as early apoptotic cells at 500 nM incubated for 72 hrs by Annexin V-FITC/propidium iodide staining based flow cytometry analysis (reference value: 1.95%); assay type: functional
[11] = tested on: NCI-H460; test: Induction of apoptosis in human NCI-H460 cells with high-OXPHOS harboring KRAS Q61H mutant assessed as late apoptotic cells at 500 nM incubated for 72 hrs by Annexin V-FITC/propidium iodide staining based flow cytometry analysis (reference value: 5.68%); assay type: functional
[12] = tested on: A549; test: Induction of apoptosis in human Trametinib-resistant A549 cells with high-OXPHOS harboring KRAS G12S mutant assessed as early apoptotic cells at 500 nM incubated for 72 hrs by Annexin V-FITC/propidium iodide staining based flow cytometry analysis (reference value: 4.31%); assay type: functional
[13] = tested on: A549; test: Induction of apoptosis in human Trametinib-resistant A549 cells with high-OXPHOS harboring KRAS G12S mutant assessed as late apoptotic cells at 500 nM incubated for 72 hrs by Annexin V-FITC/propidium iodide staining based flow cytometry analysis (reference value: 4.27%); assay type: functional
[14] = tested on: NCI-H460; test: Inhibition of mitochondrial complex I NADH-ubiquinone oxidoreductase in human NCI-H460 cells assessed as reduction in oxygen consumption rate at 1 uM incubated for 12 hrs in presence of medium supplemented with pyruvate by seahorse XF96 metabolic flux analyzer; assay type: cell-based
[15] = tested on: NCI-H460; test: Inhibition of mitochondrial complex I NADH-ubiquinone oxidoreductase in human NCI-H460 cells assessed as reduction in oxygen consumption rate at 1 uM incubated for 12 hrs in presence of medium supplemented with malate by seahorse XF96 metabolic flux analyzer; assay type: cell-based
[16] = tested on: NCI-H460; test: Inhibition of mitochondrial complex I NADH-ubiquinone oxidoreductase in human NCI-H460 cells assessed as reduction in oxygen consumption rate at 1 uM incubated for 12 hrs in presence of medium supplemented with succinate by seahorse XF96 metabolic flux analyzer; assay type: cell-based
[17] = tested on: NCI-H460; test: Inhibition of mitochondrial complex I NADH-ubiquinone oxidoreductase in human NCI-H460 cells assessed as reduction in NAD+/NADH ratio at 1 uM incubated for 12 hrs by WST-8 method; assay type: cell-based
[18] = tested on: NCI-H441; test: Antiproliferative activity against human NCI-H441 cells with high-OXPHOS assessed as reduction in cell viability incubated for 5 days by CellTiter 96 cell proliferation assay; assay type: functional, cell-based; conditions: NCI-H441, 120 h
[19] = tested on: NCI-H460; test: Inhibition of colony formation in human NCI-H460 cells with high-OXPHOS incubated for 7 days by crystal violet staining based analysis; assay type: functional, cell-based; conditions: dose 250-1000 nM, time 7.0 day
[20] = tested on: NCI-H441; test: Inhibition of colony formation in human NCI-H441 cells with high-OXPHOS incubated for 7 days by crystal violet staining based analysis; assay type: functional, cell-based; conditions: dose 250-1000 nM, time 7.0 day
[21] = tested on: NCI-H358; test: Inhibition of colony formation in human NCI-H358 cells low-OXPHOS at 250 to 1000 nM incubated for 7 days by crystal violet staining based analysis; assay type: functional, cell-based; conditions: dose 250-1000 nM, time 7.0 day

For `Cc1c(C(=O)N2CCN(Cc3ccc(OCC(F)(F)F)cc3)CC2)nnn1Cc1ccc(C(=O)Nc2ccc(OC(F)(F)F)cc2)nc1`, the inhibition [1] was 58.4%, the inhibition [2] was 8.8% and the inhibition [3] was 9%. It also gave an inhibition [4] of -6.7%, an inhibition [5] of 74.2% and an IC50 [6] of 6.3 nM. The IC50 [7] was 856 nM.

With `Cc1c(C(=O)N2CCN(C)CC2)nnn1Cc1ccc(C(=O)Nc2ccc(C(F)(F)F)cc2)nc1` the inhibition [1] was 11.5% and the inhibition [2] was -1.2%.

Work on `Cc1c(C(=O)N2CCN(Cc3ccc(OCC(F)(F)F)cc3)CC2)nnn1Cc1ccc(C(=O)Nc2ccc(Cl)cc2)nc1` yielded an inhibition [1] of 60.1%, an inhibition [2] of 13.5% and an inhibition [3] of 30.3%. For the same compound, the inhibition [4] was 26%, the inhibition [5] was 72.5% and the IC50 [6] was 7.6 nM. The IC50 [7] was over 1000 nM.

In the case of `Cc1c(C(=O)N2CCN(C(=O)c3ccc(OC(F)(F)F)cc3)CC2)nnn1Cc1ccc(C(=O)Nc2ccc(C(F)(F)F)cc2)nc1`, the inhibition [1] is reported as 43.8%.

In the case of `Cc1c(C(=O)N2CCN(S(C)(=O)=O)CC2)nnn1Cc1ccc(C(=O)Nc2ccc(C(F)(F)F)cc2)nc1`, the inhibition [1] is reported as 20.4%.

In the case of `CCNC(=O)c1ccc(Cn2nnc(C(=O)N3CCN(Cc4ccc(OCC(F)(F)F)cc4)CC3)c2C)cn1`, the inhibition [1] is reported as 36.3%.

Work on `CC(=O)Nc1cccc(-n2c(=O)n(C3CC3)c(=O)c3c(Nc4ccc(I)cc4F)n(C)c(=O)c(C)c32)c1` [TRAMETINIB] yielded an IC50 [8] of 296 nM, an IC50 [9] of 38100 nM and an Activity [10] of 2.51%. The Activity [11] was 8.3%, the Activity [12] was 6.94% and the Activity [13] was 15.6%.

`Cc1nnn(Cc2ccc(C(=O)Nc3ccc(OC(F)(F)F)cc3)nc2)c1C(=O)N1CCN(Cc2ccc(OCC(F)(F)F)cc2)CC1` gave an inhibition [1] of 20.4%.

Work on `Cc1c(C(=O)N2CCN(Cc3cccc(OCC(F)(F)F)c3)CC2)nnn1Cc1ccc(C(=O)Nc2ccc(C(F)(F)F)cc2)nc1` yielded an inhibition [1] of 49.9%.

`Cc1c(C(=O)N2CCN(Cc3ccccc3)CC2)nnn1Cc1ccc(C(=O)Nc2ccc(C(F)(F)F)cc2)nc1` gave an inhibition [1] of 10.4%.

`Cc1c(C(=O)N2CCN(Cc3ccc(OCC(F)(F)F)cc3)CC2)nnn1Cc1ccc(C(=O)NCC(C)C)nc1` gave an inhibition [1] of 5.6%.

For `Cc1c(C(=O)N2CCN(Cc3ccc(C(C)(C)C)cc3)CC2)nnn1Cc1ccc(C(=O)Nc2ccc(C(F)(F)F)cc2)nc1`, the inhibition [1] was 50.5%, the inhibition [2] was -0.9% and the inhibition [3] was 17.8%. For the same compound, the inhibition [4] was 12.2%, the inhibition [5] was 73.2% and the IC50 [6] was 7.8 nM. The IC50 [7] was over 1000 nM.

`O=C(Nc1ccc(C(F)(F)F)cc1)c1ccc(Cn2nnc(C(=O)N3CCN(Cc4ccc(OCC(F)(F)F)cc4)CC3)c2-c2ccccc2)cn1` was tested, and the inhibition [1] was 12.6%.

`Cc1c(C(=O)N2CCN(Cc3ccc(OCC(F)(F)F)cc3)CC2)nnn1Cc1ccc(C(=O)Nc2ccc(C(C)(C)C)cc2)nc1` gave an inhibition [1] of 45%.

With `Cc1c(C(=O)N2CCN(Cc3ccccc3OCC(F)(F)F)CC2)nnn1Cc1ccc(C(=O)Nc2ccc(C(F)(F)F)cc2)nc1` the inhibition [1] was 6.7%.

Compound `Cc1c(C(=O)N2CCN(Cc3ccc(OCC(F)(F)F)cc3)CC2)nnn1Cc1ccc(C(=O)Nc2ccc(F)cc2)nc1` has an inhibition [1] of 54.2%, an inhibition [2] of 9.4% and an inhibition [3] of 2.6%. The inhibition [4] was 26.6%, the inhibition [5] was 72.5% and the IC50 [6] was 11.7 nM. For the same compound, the IC50 [7] was over 1000 nM.

`Cc1c(C(=O)N2CCN(Cc3ccc(Cl)cc3)CC2)nnn1Cc1ccc(C(=O)Nc2ccc(C(F)(F)F)cc2)nc1` was tested, and the inhibition [1] was 20.4%, the inhibition [2] was 6.8% and the inhibition [3] was 3.5%. For the same compound, the inhibition [4] was 8.9%.

With `Cc1c(C(=O)N2CCN(Cc3ccc(OCC(F)(F)F)cc3)CC2)nnn1Cc1ccc(C(=O)Nc2ccc3ccccc3c2)nc1` the inhibition [1] was 52.3%, the inhibition [2] was 7% and the inhibition [3] was 11%. The inhibition [4] was 3.9%, the inhibition [5] was 57.9% and the IC50 [6] was 25.6 nM. For the same compound, the IC50 [7] was over 1000 nM.

Work on `Cc1c(C(=O)N2CCN(Cc3ccc(C(C)C)cc3)CC2)nnn1Cc1ccc(C(=O)Nc2ccc(C(F)(F)F)cc2)nc1` yielded an inhibition [1] of 36.7%.

`COc1ccc(NC(=O)c2ccc(Cn3nnc(C(=O)N4CCN(Cc5ccc(OCC(F)(F)F)cc5)CC4)c3C)cn2)cc1` was tested, and the inhibition [1] was 49.2%.

Work on `Cc1c(C(=O)N2CCN(Cc3ccc(OCC(F)(F)F)cc3)CC2)nnn1Cc1ccc(C(=O)Nc2ccccc2C(F)(F)F)nc1` yielded an inhibition [1] of 36.3%.

Work on `Cc1c(C(=O)N2CCN(Cc3ccc(OC(F)(F)F)cc3)CC2)nnn1Cc1ccc(C(=O)Nc2ccc(C(F)(F)F)cc2)nc1` yielded an inhibition [1] of 50.5%.

`CCc1c(C(=O)N2CCN(Cc3ccc(OCC(F)(F)F)cc3)CC2)nnn1Cc1ccc(C(=O)Nc2ccc(C(F)(F)F)cc2)nc1` showed an inhibition [1] of 42.6%.

`Cc1nnn(Cc2ccc(C(=O)Nc3ccc(F)cc3)nc2)c1C(=O)N1CCN(Cc2ccc(OCC(F)(F)F)cc2)CC1` showed an inhibition [1] of 9%.

`O=C(Nc1ccc(C(F)(F)F)cc1)c1ccc(Cn2nnc(C(=O)N3CCN(Cc4ccc(OCC(F)(F)F)cc4)CC3)c2C(F)(F)F)cn1` was tested, and the inhibition [1] was 59.3%, the inhibition [2] was 4.7% and the inhibition [3] was 12.1%. The inhibition [4] was 1.6%, the inhibition [5] was 85.1% and the IC50 [6] was 3.8 nM. For the same compound, the IC50 [7] was 605 nM.

In the case of `Cc1ccc(CN2CCN(C(=O)c3nnn(Cc4ccc(C(=O)Nc5ccc(C(F)(F)F)cc5)nc4)c3C)CC2)cc1`, the inhibition [1] is reported as 38.1%.

With `Cc1nnn(Cc2ccc(C(=O)Nc3ccc(Br)cc3)nc2)c1C(=O)N1CCN(Cc2ccc(OCC(F)(F)F)cc2)CC1` the inhibition [1] was 7.7%.

In the case of `Cc1c(C(=O)N2CCN(Cc3ccc(OCC(F)(F)F)cc3)CC2)nnn1Cc1ccc(C(=O)NC2CCOCC2)nc1`, the inhibition [1] is reported as 10.5%.

Compound `O=C(Nc1ccc(C(F)(F)F)cc1)c1ccc(Cn2cc(C(=O)N3CCN(Cc4ccc(OCC(F)(F)F)cc4)CC3)nn2)cn1` has an inhibition [1] of 52%, an inhibition [2] of 7.4% and an inhibition [3] of 26%. For the same compound, the inhibition [4] was -2%, the inhibition [5] was 65.7% and the IC50 [6] was 10.6 nM. It also gave an IC50 [7] of 588 nM.

In the case of `Cc1c(C(=O)N2CCN(Cc3ccc(OCC(F)(F)F)cc3)CC2)nnn1Cc1ccc(C(=O)Nc2ccc(Br)cc2)nc1`, the inhibition [1] is reported as 66%, the inhibition [2] is reported as 22.5% and the inhibition [3] is reported as 33.7%. The inhibition [4] was 20%, the inhibition [5] was 62.6% and the IC50 [6] was 5.5 nM. The IC50 [7] was 450 nM.

For `CCN1CCN(C(=O)c2nnn(Cc3ccc(C(=O)Nc4ccc(C(F)(F)F)cc4)nc3)c2C)CC1`, the inhibition [1] was -4.1%.

`Cc1nnn(Cc2ccc(C(=O)Nc3ccc(C(F)(F)F)cc3)nc2)c1C(=O)N1CCN(Cc2ccc(OCC(F)(F)F)cc2)CC1` was tested, and the inhibition [1] was 15.7%.

Work on `Cc1ccc(NC(=O)c2ccc(Cn3nnc(C(=O)N4CCN(Cc5ccc(OCC(F)(F)F)cc5)CC4)c3C)cn2)cc1` yielded an inhibition [1] of 47.9%.

With `Cc1c(C(=O)N2CCN(Cc3ccc(OCC(F)(F)F)cc3)CC2)nnn1Cc1ccc(C(=O)Nc2cccc(C(F)(F)F)c2)nc1` the inhibition [1] was 41.2%, the inhibition [2] was 1.2% and the inhibition [3] was 14%. For the same compound, the inhibition [4] was -0.1%, the inhibition [14] was “Active” and the inhibition [15] was “Active”. For the same compound, the inhibition [16] was “inactive”, the inhibition [17] was “Active” and the inhibition [5] was 39.1%. For the same compound, the IC50 [6] was 257 nM, the IC50 [18] was 169 nM and the IC50 [7] was over 10000 nM. For the same compound, the inhibition [19] was “Dose-Dependent Effect”, the inhibition [20] was “Dose-Dependent Effect” and the inhibition [21] was “inactive”.
